Values joined by “and” are separate entries in the source; they are usually repeats but may differ in a detail not shown here. Identical values can stand only once. Counter-ions that a name gives are not always drawn. Like-named read-outs stand apart in the source and are kept apart here.
Columns and labels:
[1] = test system: DC-3F hamster lung fibroblast cell line; experiment: SRB cytotoxicity, DC-3F; type: cell-based
How it was run: (§1)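 Monolayer cultures grown in RPMI 1640-10% FBS at 37 °C, 5% CO2, with resistant sublines kept under their selecting agent. Cytotoxicity determined by SRB protein staining (TCA fixation, absorbance 570 nm) in duplicate at six to seven drug concentrations. ED50 obtained by median-effect plot analysis.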

[2] = test system: CCRF-CEM/VM1; experiment: cells; type: cell-based, human
How it was run: (§2)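 Suspension leukemic cells (CCRF-CEM, P388 and drug-resistant sublines kept under the selecting agent) were seeded at 5×10^4 cells/mL in RPMI-1640 with 10% FBS at 37 °C. After 72 h drug exposure in duplicate, PMS-XTT was added for 4 h. Absorbance was read at 450 and 630 nm.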

[3] = test system: SK-N-FI; experiment: cells; type: cell-based, human; details: for IC50: 72 h
How it was run: as §1

[4] = test system: P388/Adr; experiment: cells; type: cell-based, murine; details: for IC50: 72 h
How it was run: as §2

[5] = test system: human neuroblastoma SK-N-As; experiment: SRB cytotoxicity, SK-N-As; type: cell-based; details: 72 h
How it was run: as §1

[6] = test system: murine leukemic P388/0; experiment: XTT cytotoxicity, P388/0; type: cell-based
How it was run: as §2

[7] = test system: Human CCRF-CEM/VBL Xenograft; experiment: CCRF-CEM/VBL xenograft in scid mice; type: in vivo, CB-17 scid mice
[8] = test system: CCRF-CEM human T-cell acute lymphoblastic leukemia cell line; experiment: XTT cytotoxicity (cell growth inhibition), CCRF-CEM
How it was run: as §2

[9] = test system: MCF-7/Adr; experiment: cells; type: cell-based, human; details: for IC50: 72 h
How it was run: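 Sulforhodamine B readout: TCA-fixed cultures stained 30 min with 0.4% SRB, bound dye extracted in unbuffered Tris and read at 570 nm. Duplicate experiments, six to seven drug concentrations per run.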

[10] = test system: Human CCRF-CEM Xenograft; experiment: CCRF-CEM xenograft in scid mice; type: in vivo, CB-17 scid mice
[11] = test system: CCRF-CEM/Taxol®; experiment: cells; type: cell-based, human; details: for IC50: 72 h
How it was run: as §2

[12] = test system: CCRF-CEM/VBL100; experiment: cells; type: cell-based, human
How it was run: as §2

[13] = Mesocricetus auratus, DC3F, Table 3
[14] = Homo sapiens, CCRF-CEM, 72 h, Table 1A, XTT
[15] = Homo sapiens, CCRF-CEM, Table 1, XTT
[16] = Homo sapiens, CCRF-CEM, Table 2, CCR-CEM/VM-1
[17] = Homo sapiens, CCRF-CEM, Table 5, single determinations
[18] = dose 2.0 i.p. QD d7-10,14,15, day 7
[19] = dose 2.0 i.p. QD d7-10,14,15, day 12
[20] = dose 2.0 i.p. QD d7-10,14,15, day 17
[21] = dose 2.0 i.p. QD d7-10,14,15, day 22
[22] = dose 4.0 i.p. QD d7-10,14,15, day 7
[23] = dose 4.0 i.p. QD d7-10,14,15, day 12
[24] = dose 4.0 i.p. QD d7-10,14,15, day 17
[25] = dose 4.0 i.p. QD d7-10,14,15, day 22
[26] = Homo sapiens, CCRF-CEM, Table 2
[27] = Homo sapiens, CCRF-CEM, read-out: IC50 (mean ± of determinations, in parentheses), Table 5
[28] = dose 0.2 i.p. QD d7-10,14,15, day 7
[29] = dose 0.2 i.p. QD d7-10,14,15, day 12
[30] = dose 0.2 i.p. QD d7-10,14,15, day 17
[31] = dose 0.2 i.p. QD d7-10,14,15, day 22
[32] = dose 0.4 i.p. QD d7-10,14,15, day 7
[33] = dose 0.4 i.p. QD d7-10,14,15, day 12
[34] = dose 0.4 i.p. QD d7-10,14,15, day 17
[35] = dose 0.4 i.p. QD d7-10,14,15, day 22
[36] = Table 1A, XTT, 72 h, read-out: IC50
[37] = Table 6, single determinations, read-out: IC50

With `CC(=O)O[C@H]1C(=O)[C@@]2(C)[C@H]([C@H](OC(=O)c3ccccc3)[C@]3(O)C[C@H](OC(=O)[C@H](O)[C@@H](NC(=O)c4ccccc4)c4ccccc4)C(C)=C1C3(C)C)[C@]1(OC(C)=O)CO[C@@H]1C[C@@H]2O` [Taxol ®, paclitaxel] the IC50 ([1]; Mesocricetus auratus, DC3F, 72 h, Table 1C, SRB) was 95 nM, the IC50 [1, 13] was 94.7 nM and the IC50 ([1]; Mesocricetus auratus, DC3F, relative potency ordering) was 90 nM. It also gave an IC50 [2, 14] of 6.6 nM, an IC50 [2, 15] of 2 nM and an IC50 [2, 16] of 3 nM. The IC50 ([2]; Homo sapiens, CCRF-CEM, Table 2A, Topo II gene mutated cell line) was 3 nM, the IC50 [2, 17] was 6.6 nM and the IC50 ([3]; Homo sapiens, SK-N-FI) was 130 nM. The IC50 ([4]; Mus musculus, P388/ADR) was 326 nM, the IC50 ([5]; Homo sapiens, SK-N-AS) was 1.6 nM and the IC50 ([6]; Mus musculus, P388, 72 h) was 2.9 nM. For the same compound, the Average weight change [7, 18] was 0, the “Average tumor volume (control = 1.00)” value [7, 19] was 0.60 and the Average weight change [7, 19] was −0.9. The “Average tumor volume (control = 1.00)” value [7, 20] was 0.58, the Average weight change [7, 20] was −1.5 and the “Average tumor volume (control = 1.00)” value [7, 21] was 0.70. The Average weight change [7, 21] was −0.1, the Average weight change [7, 22] was 0 and the “Average tumor volume (control = 1.00)” value [7, 23] was 0.79. For the same compound, the Average weight change [7, 23] was −1.4, the “Average tumor volume (control = 1.00)” value [7, 24] was 0.55 and the Average weight change [7, 24] was −1.6. For the same compound, the “Average tumor volume (control = 1.00)” value [7, 25] was 0.41, the Average weight change [7, 25] was −0.9 and the IC50 ([8]; Homo sapiens, CCRF-CEM) was 2.1 nM. The IC50 [8, 14] was 2.1 nM, the IC50 [8, 15] was 2 nM and the IC50 [8, 26] was 2.3 nM. It also gave an IC50 [8, 17] of 2.1 nM, an IC50 ([8]; Homo sapiens, CCRF-CEM, read-out: IC50 (A), Table 2A, parent cell line) of 2.3 nM and an IC50 ([9]; Homo sapiens, NCI/ADR-RES) of 150 nM. For the same compound, the Average weight change [10, 18] was −0.1, the “Average tumor volume (control = 1.00)” value [10, 19] was 0.39 and the Average weight change [10, 19] was −1.1. For the same compound, the “Average tumor volume (control = 1.00)” value [10, 20] was 0.29, the Average weight change [10, 20] was −1.5 and the “Average tumor volume (control = 1.00)” value [10, 21] was 0.28. The Average weight change [10, 21] was −0.3, the Average weight change [10, 22] was −0.2 and the “Average tumor volume (control = 1.00)” value [10, 23] was 0.37. The Average weight change [10, 23] was −1.7, the “Average tumor volume (control = 1.00)” value [10, 24] was 0.23 and the Average weight change [10, 24] was −1.9. For the same compound, the “Average tumor volume (control = 1.00)” value [10, 25] was 0.19 and the Average weight change [10, 25] was −0.3.
`CC[C@]1(O)C[C@@H]2CN(CCc3c([nH]c4ccccc34)[C@@](C(=O)OC)(c3cc4c(cc3OC)N(C)[C@H]3[C@@](O)(C(=O)OC)[C@H](OC(C)=O)[C@]5(CC)C=CCN6CC[C@]43[C@@H]65)C2)C1` [Vinblastine, Vinblastine sulfate] was tested, and the IC50 [1, 13] was 2.65 nM, the IC50 ([11]; Homo sapiens, CCRF-CEM) was 6.9 nM and the IC50 ([12]; Homo sapiens, CCRF-CEM) was 332 nM. It also gave an IC50 [12, 14] of 332 nM, an IC50 ([12]; Homo sapiens, CCRF-CEM, Table 2, CCRF-CEM/VLB) of 465 nM and an IC50 ([12]; Homo sapiens, CCRF-CEM, Table 5, CCRF-CEM/VLB, single determinations) of 440 nM. For the same compound, the IC50 [12, 27] was 332 nM, the IC50 ([12]; Table 5, CCRF-CEM/VLB, single determinations) was 221 nM and 336 nM and the IC50 [2, 14] was 0.41 nM. It also gave an IC50 [2, 16] of 0.68 nM, an IC50 [2, 17] of 0.49 nM and an IC50 [2, 27] of 0.41 nM. For the same compound, the IC50 ([2]; Table 5, single determinations) was 0.39 nM and 0.36 nM, the Average weight change [7, 28] was −0.3 and the “Average tumor volume (control = 1.00)” value [7, 29] was 0.86. The Average weight change [7, 29] was −0.8, the “Average tumor volume (control = 1.00)” value [7, 30] was 0.66 and the Average weight change [7, 30] was −1.4. For the same compound, the “Average tumor volume (control = 1.00)” value [7, 31] was 0.67, the Average weight change [7, 31] was −0.3 and the Average weight change [7, 32] was 0. For the same compound, the “Average tumor volume (control = 1.00)” value [7, 33] was 1.02, the Average weight change [7, 33] was −1.2 and the “Average tumor volume (control = 1.00)” value [7, 34] was 0.57. For the same compound, the Average weight change [7, 34] was −1.8, the “Average tumor volume (control = 1.00)” value [7, 35] was 0.62 and the Average weight change [7, 35] was −0.5. For the same compound, the IC50 ([8]; Homo sapiens, CCRF-CEM) was 0.63 nM, the IC50 [8, 14] was 6.3 nM and the IC50 [8, 26] was 0.68 nM. The IC50 [8, 17] was 0.8 nM, the IC50 [8, 27] was 0.63 nM and the IC50 ([8]; Table 5, single determinations) was 0.6 nM and 0.5 nM. For the same compound, the Average weight change [10, 28] was “+0.2”, the “Average tumor volume (control = 1.00)” value [10, 29] was 0.45 and the Average weight change [10, 29] was −0.8. For the same compound, the “Average tumor volume (control = 1.00)” value [10, 30] was 0.25, the Average weight change [10, 30] was −1.5 and the “Average tumor volume (control = 1.00)” value [10, 31] was 0.29. The Average weight change [10, 31] was −0.3, the Average weight change [10, 32] was −0.1 and the “Average tumor volume (control = 1.00)” value [10, 33] was 0.31. The Average weight change [10, 33] was −1.4, the “Average tumor volume (control = 1.00)” value [10, 34] was 0.27 and the Average weight change [10, 34] was −1.8. The “Average tumor volume (control = 1.00)” value [10, 35] was 0.30 and the Average weight change [10, 35] was −0.7.
In the case of `C/C1=C/C[C@@H](/C(C)=C/c2csc(C)n2)OC(=O)C[C@H](O)C(C)(C)C(=O)[C@H](C)[C@@H](O)[C@@H](C)CCC1` [Desoxyepothilone B, desoxyepothilone B], the IC50 ([1]; Table 1C, SRB, 72 h, read-out: IC50) is reported as 0.97 nM, the “(C)/(A) IC50 ratio” value [11] is reported as 1.7 and the IC50 ([11]; Table 1A, XTT, read-out: IC50) is reported as 16.2 nM. The “fold resistance (cross-resistance) vs parent CCRF-CEM” value ([12]; CCRF-CEM/VBL100 MDR cells, listed as dEpoB) was 1.8 fold, the IC50 ([12]; Table 1, XTT, read-out: IC50) was 17 nM and the “(B)/(A) IC50 ratio” value ([12]; Table 1A, CCRF-CEM/VBL100 vs CCRF-CEM) was 1.8. It also gave an IC50 [12, 36] of 17 nM, an IC50 [12, 37] of 17 nM and an IC50 ([12]; Table 7, CEM/VBL, read-out: IC50) of 16.9 nM. For the same compound, the IC50 ([12]; read-out: IC50) was 17 nM, the IC50 ([2]; Table 1, XTT, read-out: IC50) was 14 nM and the “(D)/(A) IC50 ratio” value ([2]; Table 1A, CCRF-CEM/VM1 vs CCRF-CEM) was 1.5. The IC50 [2, 36] was 14 nM, the IC50 [2, 37] was 14 nM and the “folds of resistance (IC50 ratio vs parent cell line)” value ([3]; Table 1C, SK-N-FI vs SK-N-As) was “(2.2x)”. For the same compound, the IC50 ([3]; Table 1C, SRB, read-out: IC50) was 46 nM, the “folds of resistance (IC50 ratio vs parent cell line)” value ([4]; Table 1C, P388/Adr vs P388/O) was “(0.62x)” and the IC50 ([4]; Table 1C, XTT, read-out: IC50) was 4.2 nM. The IC50 ([5]; Table 1C, SRB, read-out: IC50) was 21 nM, the IC50 ([6]; Table 1C, XTT, 72 h, read-out: IC50) was 6.8 nM and the IC50 [8] was 9.5 nM. For the same compound, the IC50 ([8]; Table 1, XTT) was 9 nM, the IC50 ([8]; Table 1A, XTT, 72 h) was 9.5 nM and the IC50 ([8]; Table 6, single determinations) was 9.5 nM. The IC50 ([8]; Table 7, CEM) was 9.5 nM, the “fold resistance vs parent MCF-7” value ([9]; MCF-7/Adr cells, listed as dEpoB) was 2.4 fold and the “folds of resistance (IC50 ratio vs parent cell line)” value ([9]; Table 1C, MCF-7/Adr vs MCF-7) was “(2.4x)”. It also gave an IC50 ([9]; Table 1C, SRB, read-out: IC50) of 7.1 nM.

Source: patent US6603023B2 (priority 1996, dated 2003)
